Assay in all cases: DTP human tumour cell line panel, 48 h
Experiment [1] concerns EKVX.
For experiment [2], the system named is HCT-116.
In experiment [3] the test system is HT-29.
The test system of experiment [4] is IGROV-1.
In experiment [5] the test system is MDA-MB-435.
Experiment [6] deals with MOLT-4.
The test system of experiment [7] is Malme-3M.
The subject of experiment [8] is OVCAR-3.
The subject of experiment [9] is OVCAR-4.
Experiment [10] deals with PC-3.
Experiment [11] concerns SF-268.
For experiment [12], the system named is SK-MEL-5.
Experiment [13] concerns SK-OV-3.
The subject of experiment [14] is SN12C.
For experiment [15], the system named is T47D.
Experiment [16] deals with TK-10.
For experiment [17], the system named is U-251.
Experiment [18] deals with UO-31.
Experiment [19] concerns Hs-578T.

Where “and” joins values, the source holds several entries; their conditions need not be identical. Equal values may be shown once.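 These data come from cells grown in 96-well plates and exposed to compound for 48 hours at five concentrations. GI50 = concentration required for 50% inhibition of growth.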 Calls of active or inactive are those of the source. Cut-off read from the data, not from the text of the source: active = GI50 up to about 1.1 µM and inactive = higher.

The record followed here is ChEMBL document CHEMBL1201862, “PubChem BioAssay data set” (2004).

As a reminder, the GI50 is the concentration that inhibits growth by half.

In the case of `C=C1C(=O)OC2/C=C(/C)C3(O)OC(C)(CC(OC(=O)C(C)C)C12)CC3OC(C)=O` (centres undefined), the GI50 was 10.6 µM (inactive) in [1]; 5.3 µM (inactive) in experiment [2]; 4.55 µM (inactive) in experiment [3]; 4.5 µM (inactive) in experiment [4]; 3.96 µM (inactive) in [5]; 4.36 µM (inactive) in experiment [6]. Further, the GI50 was 9.91 µM (inactive) in [7]; 11.5 µM (inactive) in experiment [8]; 13.2 µM (inactive) in experiment [9]; 13.7 µM (inactive) in [10]; 22.6 µM (inactive) in experiment [11]; 6.31 µM (inactive) in experiment [12]. The GI50 in experiment [13] was 7.59 µM (inactive); in [14], 4.9 µM (inactive); in experiment [15], 13 µM (inactive); in experiment [16], 5.82 µM (inactive); in experiment [17], 8 µM (inactive); in experiment [18], 6.17 µM (inactive).

Consider `COc1cc2c(c3c1c(=O)c1ccccc1n3C)C=CC1(CCCC1)O2`, for which the GI50 in [1] is 13.5 µM (inactive); in [2], 15.1 µM (inactive); in experiment [3], 7.05 µM (inactive); in experiment [19], 2.61 µM (inactive); in experiment [4], 12.9 µM (inactive); in experiment [5], 16.4 µM (inactive). Also, the GI50 in experiment [6] was 26.2 µM (inactive); in experiment [7] it was 16.4 µM (inactive); in experiment [8], 13.2 µM (inactive); in experiment [9] it was 12.2 µM (inactive); in experiment [10], > 10 µM (inactive); in experiment [11], 18.8 µM (inactive). In addition, the GI50 was 12.9 µM (inactive) in experiment [12]; 21.6 µM (inactive) in [13]; 19.1 µM (inactive) in [14]; 15.6 µM (inactive) in [16]; 12.8 µM (inactive) in experiment [17].

For the compound `Cc1cn(C2CC(N(O)Cc3ccccc3)C(CO[Si](C)(C)C(C)(C)C)O2)c(=O)[nH]c1=O` (centres undefined), the GI50 in experiment [1] was 25.4 µM (inactive) and 17.8 µM (inactive); in experiment [2], 16.2 µM (inactive) and 19.1 µM (inactive); in experiment [3] it was 17.3 µM (inactive) and 22.9 µM (inactive); in experiment [19], 18.4 µM (inactive) and 16.5 µM (inactive); in experiment [4], 15.7 µM (inactive) and 25.5 µM (inactive); in [5], 17.9 µM (inactive) and 18 µM (inactive). For the same compound, the GI50 is 40.2 µM (inactive) and 57.3 µM (inactive) in experiment [6]; 17.9 µM (inactive) in [7]; 17.7 µM (inactive) in experiment [8]; 23.7 µM (inactive) and 17.4 µM (inactive) in experiment [9]; 14.5 µM (inactive) and 22.6 µM (inactive) in [10]; 16.6 µM (inactive) and 18.8 µM (inactive) in experiment [12]. The GI50 is 16 µM (inactive) and 16.1 µM (inactive) in experiment [14]; 15.1 µM (inactive) and 19.6 µM (inactive) in experiment [17].

Take `CS(=O)(=O)c1ccc(C(=O)O[C@@H]2C(=O)N3CC[C@H]4OC(O)[C@@H]2[C@H]43)cc1` (some centres undefined): the GI50 in experiment [1] is > 100 µM (inactive); in experiment [2] it was 64.7 µM (inactive); in experiment [3], > 100 µM (inactive); in experiment [5] it was > 100 µM (inactive); in [6], > 100 µM (inactive); in experiment [8] it was > 100 µM (inactive). The GI50 in experiment [9], in experiment [10], in experiment [11], in experiment [12], in [13] and in experiment [15] was > 100 µM (inactive) each time. Besides, the GI50 in [16], in experiment [17] and in experiment [18] was > 100 µM (inactive) throughout.

Regarding `COC1=CC23C=CC1[C@@H](c1ccccc1)C2=C(C)C(=O)N3C(=O)NC1CCCCC1` (some centres undefined), the GI50 in [1] was 28.7 µM (inactive); in [2], 15 µM (inactive); in experiment [3] it was 19.7 µM (inactive); in experiment [4], 61.2 µM (inactive); in [6], 18 µM (inactive); in [8], 24.2 µM (inactive). In addition, the GI50 was 15.8 µM (inactive) in [11]; 14.9 µM (inactive) in experiment [12]; 39 µM (inactive) in experiment [13]; > 10 µM (inactive) in [14]; 26.7 µM (inactive) in experiment [16]; 16.5 µM (inactive) in [17]. In experiment [18], the GI50 is 20.7 µM (inactive).

Turning to `O=C1C=C(Nc2ccccc2C(=O)CC(=O)C(=O)Nc2ccc(Cl)c(Cl)c2)c2ccccc2C1=O`, the GI50 is > 10 µM (inactive) in experiment [1]; > 10 µM (inactive) in [2]; > 100 µM (inactive) in [3]; > 100 µM (inactive) in [4]; 3.72 µM (inactive) in experiment [6]; 12.6 µM (inactive) in experiment [7]. The GI50 in experiment [8] is 34.4 µM (inactive); in experiment [9], 59.4 µM (inactive); in experiment [11], 19.9 µM (inactive); in experiment [12], 7.78 µM (inactive); in [13], > 100 µM (inactive); in experiment [14] it was 35.1 µM (inactive). The values for the GI50 in experiment [17] and in experiment [18] were 34.7 µM (inactive) and 50.7 µM (inactive), respectively.

For the compound `CC1=C(C(=O)Nc2ccc([N+](=O)[O-])cc2)C(c2cccc([N+](=O)[O-])c2)C(C(=O)Nc2ccc([N+](=O)[O-])cc2)=C(C)N1`, the GI50 in [1] is 48.2 µM (inactive); in [2], 5.97 µM (inactive); in experiment [3], 21.9 µM (inactive); in experiment [4] it was 21.2 µM (inactive); in experiment [6], 5.35 µM (inactive); in experiment [7] it was 25.2 µM (inactive). The GI50 is 44.5 µM (inactive) in experiment [8]; 48.6 µM (inactive) in experiment [9]; 21.6 µM (inactive) in [11]; 8.45 µM (inactive) in experiment [13]; 30.5 µM (inactive) in experiment [14]; 37.5 µM (inactive) in experiment [16]. Also, the values for the GI50 in experiment [17] and in experiment [18] were 9.71 µM (inactive) and > 100 µM (inactive), respectively.

Regarding `COC12CC(O)=C(C(C)=O)C(=O)C1(C)c1c(OC(C)=O)c(C)c(O)c(C(C)=O)c1O2` (centres undefined), the GI50 is 31 µM (inactive) in [1]; 21 µM (inactive) in experiment [2]; 20.5 µM (inactive) in experiment [3]; 7.89 µM (inactive) in [4]; 18.6 µM (inactive) in experiment [6]; 17.9 µM (inactive) in experiment [7]. The GI50 in [8] was 14.1 µM (inactive); in experiment [9], 18.7 µM (inactive); in experiment [11], 23.6 µM (inactive); in experiment [14] it was 11.6 µM (inactive); in [16], 25.4 µM (inactive); in experiment [17], 9.25 µM (inactive). Further, the GI50 in [18] is 4.35 µM (inactive).

With `COc1ccc([C@]23CCN(S(=O)(=O)c4ccc(C)cc4)[C@H]2[C@H](CO)C2(CC3)OCC(C)(C)CO2)cc1OC`, the GI50 in experiment [1], in [2], in experiment [3], in experiment [4], in experiment [5] and in experiment [6] was > 100 µM (inactive) each time. Besides, the GI50 in experiment [7], in experiment [8], in experiment [9], in experiment [10], in experiment [12] and in experiment [13] was > 100 µM (inactive) throughout. For the same compound, the GI50 in experiment [14], in experiment [15], in experiment [16], in [17] and in experiment [18] was > 100 µM (inactive) in each case.

In the case of `COc1ccc(N2C(=O)C(C#N)=C(SC)C(C#N)C2=O)cc1` (centres undefined), the GI50 is > 100 µM (inactive) in experiment [1]; > 100 µM (inactive) in [2]; > 100 µM (inactive) in experiment [3]; 22.8 µM (inactive) in experiment [19]; > 100 µM (inactive) in experiment [4]; > 100 µM (inactive) in experiment [5]. Further, the GI50 in [6], in [7], in experiment [9], in [10], in experiment [11] and in experiment [12] was > 100 µM (inactive) throughout. For the same compound, the GI50 in experiment [13], in [14], in experiment [16] and in [17] was > 100 µM (inactive) in each case.

Turning to `CC(C)(C)C1CCC2c3c([nH]c4ccccc34)C3C(=O)N(c4ccc(C#N)cc4)C(=O)C3C2C1` (centres undefined), the GI50 in experiment [1] was 13.8 µM (inactive); in [2], 5.43 µM (inactive); in experiment [3], 3.78 µM (inactive); in experiment [19], 11.2 µM (inactive); in experiment [4] it was 16.4 µM (inactive); in experiment [5] it was 26.3 µM (inactive). The 50% growth inhibitory concentration (GI50) in experiment [6] is 0.678 µM (active); in experiment [7], 17.3 µM (inactive); in [8] it was 16.4 µM (inactive); in experiment [10] it was 3.66 µM (inactive); in [11] it was 11 µM (inactive); in [12], 12.9 µM (inactive). The GI50 in experiment [13] was 24.4 µM (inactive); in experiment [14], 9.59 µM (inactive); in experiment [16], 20.3 µM (inactive); in [17], 15.8 µM (inactive); in experiment [18], 7.36 µM (inactive).

With `COC(=O)[C@]12CC3C=CC1N(C3)C(CBr)c1c2n(S(=O)(=O)c2ccccc2)c2ccccc12` (some centres undefined), the GI50 in [1] is 80 µM (inactive); in experiment [2], 47.9 µM (inactive); in experiment [3], 45.3 µM (inactive); in experiment [19], 39.9 µM (inactive); in experiment [4], 72.9 µM (inactive); in experiment [5] it was 76.2 µM (inactive). Also, the GI50 is 72.9 µM (inactive) in [7]; 97.7 µM (inactive) in experiment [8]; 38.5 µM (inactive) in experiment [9]; 42.8 µM (inactive) in experiment [10]; > 100 µM (inactive) in experiment [12]; > 100 µM (inactive) in [13]. Moreover, the GI50 was > 100 µM (inactive) in [14], > 100 µM (inactive) in experiment [16], 63 µM (inactive) in experiment [17] and > 100 µM (inactive) in [18].
